{
  "source": "patent US20110059114A1",
  "about": "“Compositions and Methods for the Treatment of Radioresistant Glioma Stem Cells” (DUKE UNIVERSITY, priority 2009, published 2011)",
  "tested_on": "Chk1 and Chk2",
  "test": "Immunoblotting of activating phosphorylation of Chk1 and Chk2",
  "type": "cell-based, human",
  "conditions": "following radiation, pretreated 24 hours",
  "protocol": "(A) T4302 CD133+ cells were pretreated with DPAT or L685,458 for 24 hours prior radiation. One hour after radiation exposure, cells were harvested. The levels of activating phosphorylation of Chk1 and Chk2 were assessed by immunoblotting. (B) T4302 CD133+ cells were treated with 2 μM DAPT at 4, 24 hours prior to radiation (−24 hrs, or -4 hrs), or at 0, 4, 24 hours after radiation. Relative caspase 3/7 activities were measured 3 days after radiation exposure. *: p<0.001 by Student's t-test.\nAntibodies, DNA constructs, lentiviruses and other reagents. The antibodies purchased from Cell Signaling Technology (Danvers, M A) include phosphor-S296-Chk1 (2349), total Chk1 (2345), phosphor-T68-Chk2 (2661), total Chk2 (2662), phospho-5473 Akt (#9271), total Akt (#9272), PTEN (#9556), phospho-S15-p53 (#9286), Bcl-2 (#2870), Bcl-xL (#2764), Mcl-1 (#4572), Puma (#4976). Other antibodies used in this study are p53 antibody (#sc-126, Santa Cruz Biotechnology, Santa Cruz, Calif.), and actin antibody (Millipore, Billerica, Mass.). The pcDNA3-Notch1 construct was kindly provided by Dr. Spyros Artavanis-Tsakonas, Harvard University. The coding sequences of intracellular domain of Notch1 (amino acid residues 1744-2556) was amplified by PCR and subcloned into the lentiviral vector pCDH-CMV-EF1-puro (System Biosciences, Mountain View, Calif.) through the EcoRI and NotI sites. […]",
  "data": [
    {"smiles": "CC(NC(=O)Cc1cc(F)cc(F)c1)C(=O)NC(C(=O)OC(C)(C)C)c1ccccc1", "note": "[DAPT, N-[N-(3,5-Difluorophenacetyl-L-alanyl)]-S-phenylglycine t-Butyl Ester]", "values": [
      {"measurement": "activating phosphorylation of Chk1 or Chk2", "result": "Neither of DAPT or L685,458 significantly altered"}
    ]}
  ]
}
